Bounds are passed on as bounds.

As a reminder, the IC50 is the midpoint of a concentration-inhibition curve. The inhibition is the share of the control response that was lost under treatment. Low values mean little suppression, high ones strong suppression. Broadly, the Ki is the dissociation constant of the complex between target and ligand, obtained from inhibition or displacement.

Assay [1] concerns the target T1, Mushroom tyrosinase (Agaricus bisporus, UniProt O42713+Q00024+C7FF04+C7FF05). Kind of assay: Inhibition of mushroom tyrosinase using L-DOPA as substrate pre-treated for 20 mins followed by substrate addition measured for 15 mins by absorbance based analysis. Format: protein assay.
The target in the next assay is T2, Tyrosinase (Homo sapiens, UniProt P14679).
T2 sequence (P14679 whole entry): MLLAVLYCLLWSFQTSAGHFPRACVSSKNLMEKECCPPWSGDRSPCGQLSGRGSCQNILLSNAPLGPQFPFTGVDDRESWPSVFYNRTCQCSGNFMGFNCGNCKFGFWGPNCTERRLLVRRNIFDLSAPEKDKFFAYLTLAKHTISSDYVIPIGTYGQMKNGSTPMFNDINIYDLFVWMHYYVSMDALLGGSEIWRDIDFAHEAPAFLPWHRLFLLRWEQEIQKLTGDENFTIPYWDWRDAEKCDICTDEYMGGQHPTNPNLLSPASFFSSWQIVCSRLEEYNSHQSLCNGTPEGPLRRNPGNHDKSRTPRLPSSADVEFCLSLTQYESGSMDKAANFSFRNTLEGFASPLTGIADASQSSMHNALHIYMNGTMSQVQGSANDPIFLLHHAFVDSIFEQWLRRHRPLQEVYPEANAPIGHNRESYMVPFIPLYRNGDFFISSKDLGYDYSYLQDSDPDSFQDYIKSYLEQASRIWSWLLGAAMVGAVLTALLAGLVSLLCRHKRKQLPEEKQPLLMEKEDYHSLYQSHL
As to the kind of experiment: Competitive inhibition of His-tagged human tyrosinase expressed in HEK293 cells. Type of assay: cell-based.

Assay [2] has as its target T1, Mushroom tyrosinase. Kind of assay: Inhibition of mushroom tyrosinase using L-dopa as substrate by spectrophotometric method. Format: protein assay.
The target of assay [3] is T1, Mushroom tyrosinase. As to the kind of experiment: Inhibition of mushroom tyrosinase using L-DOPA as substrate measured for 15 mins by spectrophotometer analysis. Type of assay: protein assay.
For assay [4], the target named is T1, Mushroom tyrosinase. Kind of assay: Inhibition of mushroom tyrosinase using L-DOPA as substrate incubated for 20 mins spectrophotometric analysis. Format: protein assay.
In assay [5] the target is T1, Mushroom tyrosinase. Kind of assay: Inhibition of mushroom tyrosinase by spectrophotometric method. Type of assay: protein assay.
Assay [6] has as its target T3, Mushroom tyrosinase (Agaricus bisporus) (UniProt O42713+Q00024+C7FF04+C7FF05). Kind of assay: (§1) Inhibition of mushroom tyrosinase using L-DOPA as substrate incubated for 15 mins by spectrophotometric analysis. Format: protein assay.
For assay [7], the target named is T1, Mushroom tyrosinase. Kind of assay: Binding affinity to mushroom tyrosinase assessed as inhibition constant. Format: protein assay.
Assay [8] addresses T1, Mushroom tyrosinase. Kind of assay: Inhibition of mushroom tyrosinase. Type of assay: protein assay.
The target of assay [9] is T3, Mushroom tyrosinase (Agaricus bisporus). Kind of assay: Inhibition of mushroom tyrosinase at 100 uM relative to control. Format: protein assay.
For assay [10], the target named is T1, Mushroom tyrosinase. Kind of assay: Inhibition of mushroom tyrosinase using L-DOPA as substrate preincubated for 10 mins. Type of assay: protein assay.
The target of assay [11] is T1, Mushroom tyrosinase. Kind of assay: Binding affinity to mushroom tyrosinase assessed as binding constant by fluorescence spectrophotometry. Type of assay: protein assay.
Assay [12] addresses T1, Mushroom tyrosinase. The description is as §1. Format: protein assay.
Assay [13] addresses T1, Mushroom tyrosinase. As to the kind of experiment: Inhibition of mushroom tyrosinase using L-tyrosine as substrate incubated for 20 mins by spectrophotometric analysis. Type of assay: protein assay.
Assay [14] deals with T1, Mushroom tyrosinase. As to the kind of experiment: Inhibition of mushroom tyrosinase incubated for 10 mins by spectrophotometric analysis. Type of assay: protein assay.
In assay [15] the target is T1, Mushroom tyrosinase. As to the kind of experiment: Inhibition of mushroom tyrosinase using L-tyr as substrate. Format: protein assay.

For the compound `Oc1ccc2c(c1)OCO2`, the IC50 at Mushroom tyrosinase [1] was 6700 nM.
`NC(=S)N/N=C/c1ccc(OCc2cn(Cc3ccc(F)cc3)nn2)cc1` yielded an IC50 on Tyrosinase of 220 nM.
On Tyrosinase, `NC(=S)N/N=C/c1ccc(OCc2cn(Cc3ccc(Cl)c(Cl)c3)nn2)cc1` returned an IC50 of 220 nM.
`Nn1c(S)nnc1N/N=C\c1cccc(O)c1` returned an IC50 against Mushroom tyrosinase [2] of 7000 nM.
At Mushroom tyrosinase [3], `COc1ccc(NC(=O)Cn2cc(COc3ccc(/C=N/NC(N)=S)cc3)nn2)cc1` yielded a concentration for half-maximal inhibition (IC50) of 250 nM.
For the compound `O=c1cc(Cn2cc(COc3ccc4ccccc4c3)nn2)occ1O`, on Mushroom tyrosinase [4], the IC50 came to 300 nM.
With `Cc1c(NC(=O)Cn2cc(COc3ccc(/C=N/NC(N)=S)cc3)nn2)cccc1[N+](=O)[O-]`, on Mushroom tyrosinase [3], the IC50 turned out to be 120 nM.
`CCCCCn1nc(-c2ccccc2)n(CC(=O)NNC(=O)Nc2cc(C(F)(F)F)cc(C(F)(F)F)c2)c1=O` had an IC50 on Mushroom tyrosinase [5] of 1 nM.
In the case of `O=c1cc(Cn2cc(COc3cccc4ccccc34)nn2)occ1O`, the IC50 against Mushroom tyrosinase [4] was 60 nM.
Compound `O=c1oc2ccccc2c2nn(Cc3cn(-c4ccccc4)nn3)cc12` gave an inhibition in assay [6] of 69%.
`CCCCCn1nc(-c2ccccc2)n(CC(=O)NNC(=O)Nc2cccc(C(F)(F)F)c2)c1=O` showed an IC50 against Mushroom tyrosinase [5] of 1 nM.
With `CCCCCn1nc(-c2ccccc2)n(CC(=O)NNC(=S)Nc2ccccc2C(F)(F)F)c1=O`, at Mushroom tyrosinase [7], the Ki is 100 nM.
`Nn1c(S)nnc1N/N=C/c1cccc(Cl)c1` had an IC50 on Mushroom tyrosinase [8] of 15000 nM. In addition, the inhibition in assay [9] is 81%.
For `Nn1c(S)nnc1N/N=C/c1cccc(C(F)(F)F)c1`, in that order: 9000 nM and 95%.
On Mushroom tyrosinase [10], `O=C(CSc1nnc(-c2ccccc2F)n1-c1ccc(F)cc1)Nc1ccc(F)cc1` showed an IC50 of 98 nM. At Mushroom tyrosinase [11], the Ki came to 18 nM.
On to `Cc1cc(C=C2C(=O)NC(=S)NC2=O)c(OCc2cn(Cc3ccc(F)cc3)nn2)cc1Br`, for which the inhibition constant (Ki) at Mushroom tyrosinase [7] turned out to be 60270 nM. Also, the IC50 against Mushroom tyrosinase [12] turned out to be 24600 nM.
Consider `C/C=C/c1ccc(O)c(OC)c1`, for which, on Mushroom tyrosinase [13], the IC50 came out at 33330 nM.
In assay [6], `O=c1oc2ccccc2c2nn(Cc3cn(-c4c(Cl)cc(Cl)cc4Cl)nn3)cc12` registered an inhibition of 58%.
Still for that read-out and setting: to `O=c1oc2ccccc2c2c1cnn2Cc1cn(-c2ccccc2)nn1` belongs 85%.
Consider `Cc1cccc(Cn2cc(COc3ccc(/C=N/NC(N)=S)cc3)nn2)c1`, for which the IC50 at Tyrosinase was 220 nM.
The same measure, in the same setting: to `Cc1ccc(Cn2cc(COc3ccc(/C=N/NC(N)=S)cc3)nn2)cc1` belongs 220 nM.
With `COc1ccc(/C=N/Nc2nnc(S)n2N)cc1O`, the IC50 against Mushroom tyrosinase [8] amounted to 3400 nM. For the same compound, the inhibition in [9] was found to be 98%.
Turning to `CCCCCn1nc(-c2ccccc2)n(CC(=O)NNC(=O)Nc2ccccc2C(F)(F)F)c1=O`, the IC50 against Mushroom tyrosinase [5] was 1 nM. The Ki at Mushroom tyrosinase [7] came to 10 nM.
Regarding `Nn1c(S)nnc1N/N=C\c1cccc(F)c1`, the IC50 at Mushroom tyrosinase [2] was 12500 nM.
On to `O=c1cc(Cn2cc(COc3ccc([N+](=O)[O-])cc3)nn2)occ1O`, for which the IC50 on Mushroom tyrosinase [14] was 520 nM.
Compound `COc1ccc(C=O)cc1O` [ISOVANILLIN] returned an IC50 at Mushroom tyrosinase [15] of more than 500000 nM.
In turn, `Nn1c(S)nnc1N/N=C\c1ccccc1O` showed an IC50 on Mushroom tyrosinase [2] of 1520 nM.
